Test system: Plasmodium berghei
Test: Luciferase/luciferin-expressing antifolate-resistant parasites were used to infect a culture of HepG2 cells that were pre-incubated with compounds. Infected hepatocytes emit light due to the luciferase reaction. Assay results are presented as the percent inhibition of light emission compared to control. […]
Format: functional
Details: sporozoite; for IC90: read-out: LUCIFERASE INFECTION ASSAY - IC90

Structure (SMILES)	IC90	also measured
Cc1sc2ncnc(N3CCC(C(=O)N(CC(C)C)c4nc5ccccc5s4)CC3)c2c1C	> 10 µM	IC50 (PBLUC_HILL_SLOPE 1.15, PBLUC_R_SQUARED 0.711, read-out: LUCIFERASE INFECTION ASSAY - IC50): 4.09 µM
O/N=C(\c1ccc(Cl)cc1)c1cc2ccccc2o1	> 12.1 µM	IC50 (PBLUC_HILL_SLOPE 1.16, PBLUC_R_SQUARED 0.26, read-out: LUCIFERASE INFECTION ASSAY - IC50): 6.29 µM
Nc1ccc(-c2cn3c(-c4cccc(Cl)c4)cnc3cn2)cn1	> 10.3 µM	IC50 (PBLUC_HILL_SLOPE 1.1, PBLUC_R_SQUARED 0.459, read-out: LUCIFERASE INFECTION ASSAY - IC50): 5.57 µM
OCc1ccc(-c2cn3c(-c4ccc5c(c4)OCO5)cnc3cn2)cc1	> 9.56 µM	IC50 (PBLUC_HILL_SLOPE 1.17, PBLUC_R_SQUARED 0.649, read-out: LUCIFERASE INFECTION ASSAY - IC50): 3.91 µM
COc1ccccc1-c1nc(-c2ccc(CCCNC(C)=O)cc2)cs1	> 10 µM	IC50 (PBLUC_HILL_SLOPE 1.19, PBLUC_R_SQUARED 0.431, read-out: LUCIFERASE INFECTION ASSAY - IC50): 5.36 µM
CC1(C)CC(=O)C=C(Nc2ccc(Oc3ccccc3)cc2)C1	> 10.7 µM	IC50 (PBLUC_HILL_SLOPE 1.19, PBLUC_R_SQUARED 0.428, read-out: LUCIFERASE INFECTION ASSAY - IC50): 2.19 µM
O=C(N/N=C/c1ccc(F)cc1)c1ccc[n+]([O-])c1	> 10 µM	IC50 (PBLUC_HILL_SLOPE 1.11, PBLUC_R_SQUARED 0.152, read-out: LUCIFERASE INFECTION ASSAY - IC50): 5.8 µM
CN=C1NN=C(c2cc(C)n(-c3ccc(OC)cc3)c2C)CS1	> 10 µM	IC50 (PBLUC_HILL_SLOPE 1.15, PBLUC_R_SQUARED 0.417, read-out: LUCIFERASE INFECTION ASSAY - IC50): > 10 µM
CCCc1cc(NCc2cccnc2)n2nc(C)c(-c3ccccc3)c2n1	> 9.23 µM	IC50 (PBLUC_HILL_SLOPE 1.13, PBLUC_R_SQUARED 0.661, read-out: LUCIFERASE INFECTION ASSAY - IC50): 3.19 µM
COc1ccc(C2CC(=O)c3c(n[nH]c3C)C2)cc1 (stereo not given)	> 12.9 µM	IC50 (PBLUC_HILL_SLOPE 1.11, PBLUC_R_SQUARED 0.36, read-out: LUCIFERASE INFECTION ASSAY - IC50): 4.45 µM
Nc1c(C(=O)Nc2cccc(F)c2)sc2nc3c(cc12)N1CCC3CC1	> 8.96 µM	IC50 (PBLUC_HILL_SLOPE 1.17, PBLUC_R_SQUARED 0.5, read-out: LUCIFERASE INFECTION ASSAY - IC50): 1.98 µM
CCOC(=O)c1c(NC(=O)CNc2ccccc2CN(C)C2CCCCC2)sc(CC)c1C	> 10 µM	IC50 (PBLUC_HILL_SLOPE 1.16, PBLUC_R_SQUARED 0.382, read-out: LUCIFERASE INFECTION ASSAY - IC50): 3.12 µM
Cc1ccc(Sc2ccc(/C=C/c3cc(C(=O)O)c4ccccc4n3)cc2[N+](=O)[O-])cc1	> 10 µM	IC50 (PBLUC_HILL_SLOPE 1.12, PBLUC_R_SQUARED 0.368, read-out: LUCIFERASE INFECTION ASSAY - IC50): 8.94 µM
Clc1ccccc1/C=N/Nc1nc(-c2cc(-c3ccccc3)no2)cs1	> 8.66 µM	IC50 (PBLUC_HILL_SLOPE 1.1, PBLUC_R_SQUARED 0.687, read-out: LUCIFERASE INFECTION ASSAY - IC50): 6.48 µM
COc1ccc(-c2nn(-c3ccccc3)cc2/C=C/C(=O)NCCc2cn3ccccc3n2)cc1OC	> 10 µM	IC50 (PBLUC_HILL_SLOPE 1.11, PBLUC_R_SQUARED 0.206, read-out: LUCIFERASE INFECTION ASSAY - IC50): > 10 µM
CCc1c2c(nc3sc(C(=O)Nc4nsc(-c5ccccc5)n4)c(N)c13)CC(C)(C)CC2=O	> 10 µM	IC50 (PBLUC_HILL_SLOPE 1.15, PBLUC_R_SQUARED 0.361, read-out: LUCIFERASE INFECTION ASSAY - IC50): 6.36 µM
O=C(NCCNc1ccc2ccccc2c1)c1cc2ccccc2nc1Cl	> 10 µM	IC50 (PBLUC_HILL_SLOPE 1.17, 2.29, PBLUC_R_SQUARED 0.341, 0.725, read-out: LUCIFERASE INFECTION ASSAY - IC50): 5.88 µM
Cc1ccc(CNC(=O)c2ccc(/C=C3\SC(=O)NC3=O)cc2)cc1	> 10 µM	IC50 (PBLUC_HILL_SLOPE 1.15, PBLUC_R_SQUARED 0.802, read-out: LUCIFERASE INFECTION ASSAY - IC50): 2.5 µM
O=C(NC1CC1)c1ccc(-c2cnc3cnc(-c4cccs4)cn23)cc1	> 9.16 µM	IC50 (PBLUC_HILL_SLOPE 1.19, PBLUC_R_SQUARED 0.184, read-out: LUCIFERASE INFECTION ASSAY - IC50): > 9.16 µM
N=C1c2ccccc2CN1NC(=O)CCCOc1ccc(Cl)cc1Cl	7.29 µM	IC50 (PBLUC_HILL_SLOPE 1.16, PBLUC_R_SQUARED 0.64, read-out: LUCIFERASE INFECTION ASSAY - IC50): 1.1 µM

Structure (SMILES)	IC90	also measured
Fc1ccc(-c2nc3ccccc3n2-c2cc(-c3ccccc3)n[nH]2)cc1	5.27 µM	IC50 (PBLUC_HILL_SLOPE 1.15, 2.25, PBLUC_R_SQUARED 0.601, 0.956, read-out: LUCIFERASE INFECTION ASSAY - IC50): 1.58 µM
O=C(Nc1nc2cc3c(cc2s1)OCCO3)c1cccc2c[nH]nc12	0.404 µM	IC50 (PBLUC_HILL_SLOPE 1.1, PBLUC_R_SQUARED 0.666, read-out: LUCIFERASE INFECTION ASSAY - IC50): 0.0549 µM
Cc1ccc(-n2c(-c3ccc(F)cc3)nc3c2C(=O)c2ccccc2C3=O)cc1	> 10 µM	IC50 (PBLUC_HILL_SLOPE 1.1, PBLUC_R_SQUARED 0.595, read-out: LUCIFERASE INFECTION ASSAY - IC50): 1.88 µM
CCC(NC(=O)NCc1ccccc1S(=O)(=O)N1CCCCC1)c1ccc(Cl)cc1 (stereo not given)	> 10 µM	IC50 (PBLUC_HILL_SLOPE 1.14, PBLUC_R_SQUARED 0.117, read-out: LUCIFERASE INFECTION ASSAY - IC50): > 10 µM
CCCn1c(NC(=O)Cc2csc(NC(=O)c3ccco3)n2)nc2ccccc21	> 10 µM	IC50 (PBLUC_HILL_SLOPE 1.19, PBLUC_R_SQUARED 0.0275, read-out: LUCIFERASE INFECTION ASSAY - IC50): > 10 µM
CCNC(=S)N/N=C/c1cc(Cl)cc(Cl)c1O	> 11.3 µM	IC50 (PBLUC_HILL_SLOPE 1.17, PBLUC_R_SQUARED 0.411, read-out: LUCIFERASE INFECTION ASSAY - IC50): > 11.3 µM
OC1CCN(c2ccnc3c(-c4ccc5ccccc5c4)cnn23)CC1	0.96 µM	IC50 (PBLUC_HILL_SLOPE 1.1, PBLUC_R_SQUARED 0.73, read-out: LUCIFERASE INFECTION ASSAY - IC50): 0.129 µM
OC[C@H]1O[C@@H](c2nc(-c3nc(-c4ccc5[nH]ccc5c4)no3)cs2)[C@H](O)[C@@H]1O	1.55 µM	IC50 (PBLUC_HILL_SLOPE 1.16, PBLUC_R_SQUARED 0.583, read-out: LUCIFERASE INFECTION ASSAY - IC50): 0.232 µM
CN1CCCN(C(=O)CCNC(=O)/C=C/c2ccco2)c2nc3ccccc3nc21	> 10 µM	IC50 (PBLUC_HILL_SLOPE 1.1, PBLUC_R_SQUARED 0.699, read-out: LUCIFERASE INFECTION ASSAY - IC50): 1.78 µM
Cc1cc(C)c(NC(=O)CNc2nn3cc(-c4ccccc4)nc3s2)c(C)c1	> 10 µM	IC50 (PBLUC_HILL_SLOPE 1.1, PBLUC_R_SQUARED 0.432, read-out: LUCIFERASE INFECTION ASSAY - IC50): 1.54 µM
COCCOc1ccc(C(F)(F)F)cc1NC(=O)c1ccc2ncsc2c1	> 10 µM	IC50 (PBLUC_HILL_SLOPE 1.17, PBLUC_R_SQUARED 0.0937, read-out: LUCIFERASE INFECTION ASSAY - IC50): 8.48 µM
CNc1cc(C(C)C)nc2c(-c3ccccc3)cnn12	> 12.4 µM	IC50 (PBLUC_HILL_SLOPE 1.1, PBLUC_R_SQUARED 0.428, read-out: LUCIFERASE INFECTION ASSAY - IC50): 9.54 µM
COCCNC(=O)C1CCN(C(C(=O)c2c[nH]c3ccccc23)c2ccccc2)CC1 (stereo not given)	4.42 µM	IC50 (PBLUC_HILL_SLOPE 1.13, PBLUC_R_SQUARED 0.77, read-out: LUCIFERASE INFECTION ASSAY - IC50): 0.636 µM
N#Cc1cc(NS(=O)(=O)c2c[nH]c(C(=O)N3CCCC3)c2)ccc1Cl	> 10 µM	IC50 (PBLUC_HILL_SLOPE 1.14, PBLUC_R_SQUARED 0.85, read-out: LUCIFERASE INFECTION ASSAY - IC50): 5.33 µM
Cc1nn(-c2ccccc2Cl)c2sc(C(=O)Nc3ccc(N4CCN(C)CC4)nc3)cc12	> 10 µM	IC50 (PBLUC_HILL_SLOPE 1.19, PBLUC_R_SQUARED 0.233, read-out: LUCIFERASE INFECTION ASSAY - IC50): 5.77 µM
Cc1cc(/C=N/Nc2ccccc2[N+](=O)[O-])c(C)n1CC(C)C	8.36 µM	IC50 (PBLUC_HILL_SLOPE 1.12, PBLUC_R_SQUARED 0.805, read-out: LUCIFERASE INFECTION ASSAY - IC50): 1.17 µM
Cn1c(NCc2ccccc2)nc2cnc(Nc3cccc(C(F)(F)F)c3)cc21	> 10 µM	IC50 (PBLUC_HILL_SLOPE 1.17, PBLUC_R_SQUARED 0.452, read-out: LUCIFERASE INFECTION ASSAY - IC50): 4.08 µM
O=S(=O)(Nc1cccc(C(F)(F)F)c1)c1c(F)c(Br)cc(F)c1Br	> 6.67 µM	IC50 (PBLUC_HILL_SLOPE 1.15, PBLUC_R_SQUARED 0.311, read-out: LUCIFERASE INFECTION ASSAY - IC50): > 6.67 µM
O=C(Nc1nc2ccccc2[nH]1)c1cc2ccccc2cc1O	> 10 µM	IC50 (PBLUC_HILL_SLOPE 1.13, 0.699, PBLUC_R_SQUARED 0.533, 0.940, read-out: LUCIFERASE INFECTION ASSAY - IC50): 1.94 µM
Cc1c(C(=O)Nc2nc3c(s2)CCCCC3)[nH]c2c1C(=O)CC(C)(C)C2	> 10 µM	IC50 (PBLUC_HILL_SLOPE 1.1, PBLUC_R_SQUARED 0.304, read-out: LUCIFERASE INFECTION ASSAY - IC50): 2.21 µM
